This is an account of results in patent US11685738B2, “Fluorinated tetrahydronaphthyridinyl nonanoic acid derivatives and uses thereof” (OcuTerra Therapeutics, Inc., priority 2015, dated 2023).

The target of one assay is αvβ6 (Homo sapiens (Human), UniProt P06756+P18564). Briefly: αVβ6–LAP-TGF β1 integrin binding assay (integrin-coupled beads, flow cytometry). Conditions: for IC50: ligand LAP TGF-β1; for αvβ8/αvβ6: ratio of αvβ8 IC50 to αvβ6 IC50. The text has this:
(§1) All αV Integrins are known to bind to proteins with a RGD motif. Two RGD ligands were used in this study: Vitronectin (VN) as a ligand for αVβ3 and αVβ5 (Wayner et al., J. Cell Biol., 113 (4), 919-929, 1991), and LAP TGF-β1 (LAP1) as a ligand for αVβ6 and αVβ8 (Rognoni et al., Nat. Med., 20(4): 350-359, 2014). CWHM12 was used as a positive control for αVβ6 and αVβ8 (Henderson et al., Nat. Med. 19(12), 10.1038/nm.3282 2013), and Cilengitide as a positive control for αVβ3 and αVβ5 (Kumar et al., J. Pharmacol. Exp. Ther., 283, 843-853, 1997).
(§2) The integrin coupled Dyna beads were allowed to interact with respective ligands. The integrin-ligand complex was detected with either Primary/Secondary Antibody conjugated with Fluorescein Isothiocyanate (FITC). For αVβ3 and αVβ5, Vitronectin was used as a ligand and a primary antibody conjugated with FITC (Anti-VN-FITC Ab) was used to detect the interaction. For αVβ6 and αVβ8, LAP-TGF (31 was used as ligand and a primary antibody against LAP1 (Anti-LAP1 Ab) and a secondary antibody conjugated with FITC were used to detect the αVβ6/αVβ8-LAP-TGF (31 complex. Fluorescence was measured by Flow Cytometry analysis.
(§3) 5 mg of Dyna beads were weighed in a low protein binding microfuge (Eppendorf) tube (1.5 mL volume). The beads were re-suspended in 1 mL of Sodium Phosphate Buffer and vortexed at high speed for 30 seconds. The tube was then placed in a tube roller and tilt rotated for 10 min. After tilt rotation, the tube was placed on the Magna Spin and the beads were allowed to settle. The supernatant was discarded and the beads were washed three times. The beads were then re-suspended in 100 μL of Sodium Phosphate Buffer and 20 μL of washed beads were distributed into 5 low protein binding Eppendorf tubes (1 mg of beads in each tube). The beads were used for coupling integrins.
(§4) 20 μL of (1 mg) of beads were mixed with 20 μL of integrins (20 μg) and 20 μL of 3 M Ammonium Sulfate solution (final concentration of ammonium sulfate was 1M) to achieve a Bead: Protein ratio of 5 mg:100 μg. The solution was mixed gently and placed in a tube roller and incubated at 37° C. for 16 hours.
(§5) αVβ6/αVβ8 coupled beads were treated with the ligand LAP TGF-β1 (LAP1) at room temperature for 3 hours. The complex (Integrin+Ligand) was then treated with primary Ab (Anti-LAP1 Ab) overnight at 4° C. The whole complex (Integrin+Ligand+Primary Ab) was treated with Secondary Ab conjugated with FITC and incubated for 2 hours. The complex was analyzed by either plate reader or Flow Cytometer.
(§6) 10 μL of αVβ6/αVβ8 coupled beads were taken for the experiment. The concentration of integrins was 10 nM. 10 μL of LAP1 was taken (10 nM for aVβ6 and 20 nM for aVβ8). Reaction between integrin coupled beads and LAP1 was considered as the full reaction, and reaction without LAP1 or a compound of the disclosure was considered as the blank reaction. The samples were incubated in low protein binding tubes at room temperature for 3 hours. The tubes were briefly spun and placed in a Magna spin. The supernatant was removed. The beads were washed with assay buffer twice to remove excess LAP1 and then re-suspended in […] assay buffer containing 1:200 anti-LAP1 Ab (primary Ab). The tubes were placed in a tube roller and incubated at 4° C. overnight. After a brief spin, the tubes were then placed in a Magna spin and the supernatant was removed. The beads were washed with assay buffer twice to remove excess primary Ab and then re-suspended in 150 μL of assay buffer containing 1:500 secondary Ab conjugated with FITC. The tubes were incubated at room temperature for 2 hours in a tube roller. After a brief spin, the tubes were placed in a Magna spin and the supernatant was removed. The beads were washed with assay buffer twice followed by PBS. The beads were then re-suspended in 300 μL of PBS and analyzed by a Flow Cytometer (BD FACSCalibur, Software—BDcell Quest Pro Version 6). […]
In general terms: Flow cytometry measures light scatter and fluorescence of single cells or particles in a stream.

A further assay addresses αvβ8 (Homo sapiens (Human), UniProt P06756+P26012). Briefly: αVβ8–LAP-TGF β1 integrin binding assay (integrin-coupled beads, flow cytometry). Conditions: ligand LAP TGF-β1.
Description: as §1, §2, §3, §4, §5, §6

Assay [1] relates to bleomycin induced lung stiffness. Briefly: Bleomycin induced mouse pulmonary fibrosis model (lung stiffness, pressure-volume curves). Format: in vivo, male C57BL/6 mice. Conditions: for reversal of bleomycin induced lung stiffness, compared to the vehicle control group: all doses tested (10, 30, 100 mg/kg PO, day 0-21); for reversal of lung stiffness compared to positive control pirfenidone 100 mg/kg BID: mid- and high-dose groups (30 and 100 mg/kg PO). Here is the method:
Experimental animals are randomly and prospectively assigned to groups. On day 0 and prior to bleomycin induction, animals are administered the first dose of vehicle or a compound of the present disclosure. Following dosing, all animals are anesthetized. A small diameter cannula is inserted into the trachea and saline or bleomycin is slowly infused into the lungs. Group 1 serves as an untreated control group and receives saline only (no bleomycin) on day 0. The other groups receive bleomycin on day 0. Treatments with vehicle (e.g., methylcellulose), positive control (e.g., Pirfenidone), or a compound of the present disclosure are administered once or twice daily via oral gavage (PO). All animals are weighed and evaluated daily for respiratory distress.
Prior to sacrifice, animals are anesthetized and once the animal is determined to be non-responsive a shallow incision is made. The trachea is isolated and a transverse cut is made between tracheal rings approximately half-way through the trachea. A tracheotomy is performed by the insertion of a cannula through the incision secured with surgical suture to the trachea. Following cannulation, the adapter end of the cannula is attached to the mechanical ventilator. The animal is ventilated and following an acclimation period, lung volume is standardized and each animal undergoes a measure of total respiratory impedance.
Ninety-five male C57BL/6 mice were randomly and prospectively assigned to one group of fifteen animals and eight groups of ten animals each. On day 0 and at least one hour prior to bleomycin induction, animals were administered the first dose of vehicle or test-article (i.e., a compound of the present disclosure). At least one hour following dosing, all mice were anesthetized with isoflurane and placed on their backs lying on a table at approximately 60°. A small diameter cannula was inserted into the trachea, and saline or bleomycin was slowly infused into the lungs in a volume of 40 μL.
Group 1 served as an untreated control group and received saline only (no bleomycin) on day 0. Groups 2-9 received 2.25 U/kg of bleomycin on day 0. The animals were then released into a recovery cage and allowed to wake up. From day 0 through day 21, treatments were administered once or twice daily via oral gavage (PO). Vehicle treated animals (Group 2) received 0.4% methylcellulose. Remaining animals received either Pirfenidone at 100 mg/kg (Group 3), Compound A15s at 100 mg/kg (Group 4), 30 mg/kg (Group 5) or 10 mg/kg (Group 6), or Compound A21 at 100 mg/kg (Group 7), 30 mg/kg (Group 8) or 10 mg/kg (Group 9).
All animals were weighed and evaluated daily for respiratory distress (defined as an increase in respiratory rate and/or obvious respiratory effort). Animals with severe respiratory distress, or animals that lost greater than 30% of their total starting body weight, were euthanized within 2 hours of observation.
On Day 21, prior to sacrifice, mice were anesthetized with IP injection of ketamine/xylazine (100 mg/kg, 10 mg/kg). Once the animal was determined to be non-responsive a shallow 2 cm vertical incision was made starting from 1 cm below the chin. The trachea was isolated and a transverse cut was made between tracheal rings approximately half-way through the trachea. A tracheotomy was performed by the insertion of an 18 gauge polyethylene cannula through the incision secured with surgical suture to the trachea. Following cannulation, the adapter end of the cannula was attached to the flexiVent mechanical ventilator. The animal was ventilated at 10 ml/kg tidal volume (VT), 150 breaths per minute and 3 cm H2O positive end expiratory pressure (PEEP). Following a 2-minute acclimation period, lung volume was standardized with 1, 6-second deep inflation to a pressure of 30 cm H2O followed by 2 pressure-volume measurements up to 40 ml/kg. […]

αvβ6, sequence (P06756 31-992): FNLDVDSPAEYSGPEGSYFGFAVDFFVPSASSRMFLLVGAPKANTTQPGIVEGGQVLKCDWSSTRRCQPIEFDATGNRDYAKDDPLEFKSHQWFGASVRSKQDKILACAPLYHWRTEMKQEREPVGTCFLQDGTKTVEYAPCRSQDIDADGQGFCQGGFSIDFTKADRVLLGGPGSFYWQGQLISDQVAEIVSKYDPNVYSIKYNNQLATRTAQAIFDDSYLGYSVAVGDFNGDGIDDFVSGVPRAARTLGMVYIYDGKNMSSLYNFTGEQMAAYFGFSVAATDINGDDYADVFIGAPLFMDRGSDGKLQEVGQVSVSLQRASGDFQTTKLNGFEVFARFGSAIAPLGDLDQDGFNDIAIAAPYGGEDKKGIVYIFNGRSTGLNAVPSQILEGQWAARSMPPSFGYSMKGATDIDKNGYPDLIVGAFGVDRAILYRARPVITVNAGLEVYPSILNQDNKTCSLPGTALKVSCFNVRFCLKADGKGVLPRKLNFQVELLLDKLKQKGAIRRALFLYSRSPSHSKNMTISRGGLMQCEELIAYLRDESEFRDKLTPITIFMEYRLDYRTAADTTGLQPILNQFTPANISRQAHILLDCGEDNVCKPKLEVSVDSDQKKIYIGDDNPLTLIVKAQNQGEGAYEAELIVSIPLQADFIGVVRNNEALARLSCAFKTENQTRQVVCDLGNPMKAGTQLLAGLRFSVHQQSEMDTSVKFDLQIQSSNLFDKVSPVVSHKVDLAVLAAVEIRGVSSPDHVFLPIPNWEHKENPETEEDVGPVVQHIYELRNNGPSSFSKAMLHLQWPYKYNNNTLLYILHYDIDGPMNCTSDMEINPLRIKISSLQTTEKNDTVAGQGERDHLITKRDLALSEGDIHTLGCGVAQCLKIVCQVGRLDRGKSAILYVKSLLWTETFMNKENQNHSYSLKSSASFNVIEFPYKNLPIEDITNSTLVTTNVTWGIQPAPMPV
αvβ6, sequence (P18564 22-707): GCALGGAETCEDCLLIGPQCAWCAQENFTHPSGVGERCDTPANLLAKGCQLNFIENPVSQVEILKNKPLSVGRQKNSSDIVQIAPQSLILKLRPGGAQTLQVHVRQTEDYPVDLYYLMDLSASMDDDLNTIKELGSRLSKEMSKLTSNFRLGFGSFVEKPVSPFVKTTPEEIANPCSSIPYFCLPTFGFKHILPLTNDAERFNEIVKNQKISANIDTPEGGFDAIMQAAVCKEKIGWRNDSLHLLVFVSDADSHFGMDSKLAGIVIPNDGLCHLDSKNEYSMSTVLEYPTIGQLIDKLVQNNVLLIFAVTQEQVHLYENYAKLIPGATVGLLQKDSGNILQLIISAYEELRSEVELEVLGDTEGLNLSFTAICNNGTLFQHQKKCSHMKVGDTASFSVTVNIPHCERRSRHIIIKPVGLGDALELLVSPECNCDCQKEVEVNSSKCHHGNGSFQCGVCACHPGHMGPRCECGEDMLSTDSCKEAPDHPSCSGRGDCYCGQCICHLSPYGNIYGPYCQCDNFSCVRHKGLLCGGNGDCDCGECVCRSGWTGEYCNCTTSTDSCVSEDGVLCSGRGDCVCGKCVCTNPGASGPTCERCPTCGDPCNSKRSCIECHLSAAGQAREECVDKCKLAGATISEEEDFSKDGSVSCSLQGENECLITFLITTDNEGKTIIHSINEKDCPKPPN
αvβ8, sequence (P06756 31-992): as the sequence (P06756 31-992) above
αvβ8, sequence (P26012 43-684): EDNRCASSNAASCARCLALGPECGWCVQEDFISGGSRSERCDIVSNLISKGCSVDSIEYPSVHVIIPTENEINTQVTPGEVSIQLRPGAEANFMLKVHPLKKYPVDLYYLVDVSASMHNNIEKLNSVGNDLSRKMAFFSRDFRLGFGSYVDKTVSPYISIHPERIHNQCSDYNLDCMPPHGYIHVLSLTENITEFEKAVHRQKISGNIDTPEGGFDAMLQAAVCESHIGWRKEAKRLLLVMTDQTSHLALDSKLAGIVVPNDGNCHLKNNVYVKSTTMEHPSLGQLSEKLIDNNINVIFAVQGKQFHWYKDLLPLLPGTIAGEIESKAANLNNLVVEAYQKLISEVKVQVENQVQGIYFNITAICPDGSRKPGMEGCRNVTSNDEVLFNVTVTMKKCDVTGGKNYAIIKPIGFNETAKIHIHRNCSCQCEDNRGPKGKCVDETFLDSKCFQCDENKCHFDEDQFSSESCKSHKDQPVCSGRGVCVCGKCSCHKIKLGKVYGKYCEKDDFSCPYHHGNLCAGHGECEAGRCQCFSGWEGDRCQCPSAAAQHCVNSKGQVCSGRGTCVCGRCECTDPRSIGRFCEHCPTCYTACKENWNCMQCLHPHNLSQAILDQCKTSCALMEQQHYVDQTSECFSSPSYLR

What is called IC50 is the concentration needed to halve the response being measured. Low readings indicate greater potency in that assay, high ones weaker potency in that assay. For the compound `O=C(O)CC(CCCCCCc1ccc2c(n1)NCCC2)c1cccc(C(F)(F)F)c1` (single isomer, unassigned) [Compound A21-2], on αvβ6, the IC50 turned out to be 0.0046 µM and the αvβ8/αvβ6 is recorded as 10.93. Besides, the IC50 on αvβ8 came out at 0.0503 µM.

On to `O=C(O)C[C@@H](c1ccc(OC(F)F)nc1)N1CCN(CCCc2ccc3c(n2)NCCC3)C1=O` [Compound A1, (S)-3-(6-(difluoromethoxy)pyridin-3-yl)-3-(2-oxo-3-(3-(5,6,7,8-tetrahydro-1,8-naphthyridin-2-yl)propyl)imidazolidin-1-yl)propanoic acid], for which, on αvβ6, the IC50 is 0.0083 µM and the αvβ8/αvβ6 is recorded as 1.59. The compound also registered an IC50 on αvβ8 of 0.0132 µM.

As to `O=C(O)CC(CCCCCCc1ccc2c(n1)NCCC2)c1cnc2cc(F)c(F)cc2c1` (stereo not shown) [Compound A6, 3-(6,7-difluoroquinolin-3-yl)-9-(5,6,7,8-tetrahydro-1,8-naphthyridin-2-yl)nonanoic acid], the IC50 on αvβ6 worked out at 0.00825 µM; on αvβ8 it was 0.024 µM. The αvβ8/αvβ6 on αvβ6 was 2.91.

Regarding `O=C(O)CC(CCCCCCc1ccc2c(n1)NCCC2)c1cnc2cc(C(F)(F)F)ccc2c1` (stereo not shown) [Compound A7, 9-(5,6,7,8-tetrahydro-1,8-naphthyridin-2-yl)-3-(7-(trifluoromethyl)quinolin-3-yl)nonanoic acid], at αvβ6, the IC50 was found to be 0.0116 µM and the αvβ8/αvβ6 came to 6.93. On αvβ8, this compound came in with an IC50 of 0.0806 µM.

Consider `O=C(O)C[C@@H](c1cccc(C(F)(F)F)c1)N1CCN(CCCc2ccc3c(n2)NCCC3)C1=O` [Compound A15s, (S)-3-(2-oxo-3-(3-(5,6,7,8-tetrahydro-1,8-naphthyridin-2-yl)propyl)imidazolidin-1-yl)-3-(3-(trifluoromethyl)phenyl)propanoic acid], for which, at αvβ6, the IC50 is 0.00928 µM and the αvβ8/αvβ6 came to 0.64. In addition, on αvβ8, the IC50 was determined as 0.00592 µM. The “reversal of bleomycin induced lung stiffness, mid- and high-dose groups” value in assay [1] (30 and 100 mg/kg PO, day 0-21) is recorded as “significant reversal of bleomycin induced lung stiffness”. In assay [1], the “reversal of bleomycin induced lung stiffness, compared to the vehicle control group” value was “reversed bleomycin induced lung stiffness at all doses tested” and the “reversal of lung stiffness compared to positive control pirfenidone 100 mg/kg BID” value is on record as “superior to the positive control pirfenidone”. Also, in assay [1] (mid-dose group (30 mg/kg PO)), the “lung stiffness compared to saline treated animal group (no bleomycin)” value is given as “indistinguishable from the saline treated animal group”.

Turning to `O=C(O)CC(CCCCCCc1ccc2c(n1)NCCC2)c1cccc(C(F)(F)F)c1` (stereo not shown) [Compound A21], at αvβ6, the IC50 stood at 0.00764 µM and the αvβ8/αvβ6 is 11.54. The compound also showed an IC50 at αvβ8 of 0.0882 µM. Further, in assay [1], the “reversal of bleomycin induced lung stiffness, compared to the vehicle control group” value is “reversed bleomycin induced lung stiffness at all doses tested” and the “reversal of lung stiffness compared to positive control pirfenidone 100 mg/kg BID” value was “similar, if not better, reversal of bleomycin induced lung stiffness”.

In the case of `O=C(O)CC(CCCCCCc1ccc2c(n1)NCCC2)c1cc(Cl)cc(C(F)(F)F)c1` (stereo not shown) [Compound A24, 3-(3-chloro-5-(trifluoromethyl)phenyl)-9-(5,6,7,8-tetrahydro-1,8-naphthyridin-2-yl)nonanoic acid], the IC50 on αvβ6 was found to be 0.0175 µM; on αvβ8, 0.0354 µM. Further, at αvβ6, the αvβ8/αvβ6 worked out at 2.02.

With `O=C(O)CC(CCCCCCc1ccc2c(n1)NCCC2)c1cc(C(F)(F)F)ccc1F` (stereo not shown) [Compound A28], at αvβ6, the IC50 is 0.0169 µM and the αvβ8/αvβ6 is given as 2.04. This compound gave an IC50 on αvβ8 of 0.0344 µM.

On to `COc1ccc([C@H](CC(=O)O)N2CCN(CCCc3ccc4c(n3)NCCC4)C2=O)cn1` [Compound A30s], for which the αvβ8/αvβ6 on αvβ6 is listed as 1.83.
